The text below walks through data of article PMC1298333, “Biochemical characterization of the Arctic char (Salvelinus alpinus) ovarian progestin membrane receptor” (Reproductive biology and endocrinology : RB&E, 2005).

Experiment [1] deals with T1, 17,20beta-P membrane receptor (ovarian membrane progestin receptor, mPR).
T1 construct: gene paqr7; native receptor in crude ovarian plasma membrane fraction (20,000 g pellet)
Kind of experiment: competition with [3H]-17, […]β-P, filtration assay. The class given is binding, Salvelinus alpinus. The conditions noted are these: 7 nM [3H]-17,20β-P, ovarian membranes, pH 7.4, +4°C, 30 min; read-out: Concentration (nM) causing 50% displacement.

The target is the same in experiment [2]. Kind of experiment: radioligand saturation, filtration assay, Scatchard. The class given is binding, Salvelinus alpinus. To be noted: labelled compound ([3H]-17,20β-P); ovarian membranes, pH 7.4, +4°C, 30 min.

For `C[C@]12CC[C@H]3[C@@H](CCC4=CC(=O)CC[C@@]43C)[C@@H]1CC[C@@H]2C(=O)CO` [11-DOC, 11-deoxycorticosterone], the IC50 in experiment [1] was 132 nM. Regarding `C[C@@H](O)[C@@]1(O)CC[C@H]2[C@@H]3CCC4=CC(=O)CC[C@]4(C)[C@H]3CC[C@@]21C` [17,20β-P, 17,20beta-dihydroxy-4-pregnen-3-one], the IC50 in experiment [1] came out at 1.25 nM. Besides, the Kd in experiment [2] worked out at 13.8 ± 1.1 nM. On to `CC(=O)[C@@]1(O)CC[C@H]2[C@@H]3CCC4=CC(=O)CC[C@]4(C)[C@H]3CC[C@@]21C` [17α-OH-P, 17α-hydroxyprogesterone], for which the IC50 in experiment [1] amounted to 69.3 nM. Turning to `C[C@]12CCC(=O)C=C1CC[C@@H]1[C@@H]2CC[C@@]2(C)[C@H]1CC[C@]2(O)[C@H](O)CO` [20β-S, 17, 20β, 21-trihydroxy-4-pregnen-3-one], the IC50 in experiment [1] is 145 nM. For `C[C@]12CCC(=O)C=C1CC[C@@H]1[C@@H]2CC[C@@]2(C)[C@H]1CC[C@]2(O)C(=O)CO` [DC, 11-deoxycortisol], the IC50 in experiment [1] was 207 nM. Still for that read-out and setting: next, `C[C@]12CC[C@@H]3c4ccc(O)cc4CC[C@H]3[C@@H]1CC[C@@H]2O` [E2, 17β-estradiol]: 37.9 nM; `C[C@]12CCC(=O)C=C1CC[C@@H]1[C@@H]2[C@@H](O)C[C@@]2(C)[C@H]1CC[C@]2(O)C(=O)CO` [F, cortisol]: 14400 nM; `CC(C)C(=O)Nc1ccc([N+](=O)[O-])c(C(F)(F)F)c1` [Flutamide]: 256 nM. `CC(=O)[C@H]1CC[C@H]2[C@@H]3CCC4=CC(=O)CC[C@]4(C)[C@H]3CC[C@]12C` [P4, progesterone]: the IC50 in experiment [1] was found to be 52.6 nM. In the case of `C[C@]12CC[C@H]3[C@@H](CCC4=CC(=O)CC[C@@]43C)[C@@H]1CC[C@@H]2O` [T, testosterone], the IC50 in experiment [1] was 18300 nM. With `CN(C)c1ccc([C@H]2C[C@]3(C)[C@@H](CC[C@]3(O)CCCO)[C@@H]3CCC4=CC(=O)CCC4=C32)cc1` [ZK 98299], the IC50 in experiment [1] worked out at 12900 nM. Regarding `Clc1ccc(C(c2ccccc2Cl)C(Cl)Cl)cc1` (stereo not drawn) [o,p'-DDD], in experiment [1], the IC50 stood at 549 nM. With `Clc1ccc(C(c2ccccc2Cl)C(Cl)(Cl)Cl)cc1` (stereo not drawn) [o,p'-DDT], in experiment [1], the IC50 came to 378 nM. As to ZK 112992, in experiment [1], the IC50 is 1180 nM.
